Measured values: BindingDB's records for patent US20240132480 (Cornell University, 2024)

Target: T1, Dihydrolipoyl dehydrogenase (Mycobacterium tuberculosis (strain ATCC 25618 / H37Rv), UniProt P9WHH9)
T1 sequence (P9WHH9 whole entry): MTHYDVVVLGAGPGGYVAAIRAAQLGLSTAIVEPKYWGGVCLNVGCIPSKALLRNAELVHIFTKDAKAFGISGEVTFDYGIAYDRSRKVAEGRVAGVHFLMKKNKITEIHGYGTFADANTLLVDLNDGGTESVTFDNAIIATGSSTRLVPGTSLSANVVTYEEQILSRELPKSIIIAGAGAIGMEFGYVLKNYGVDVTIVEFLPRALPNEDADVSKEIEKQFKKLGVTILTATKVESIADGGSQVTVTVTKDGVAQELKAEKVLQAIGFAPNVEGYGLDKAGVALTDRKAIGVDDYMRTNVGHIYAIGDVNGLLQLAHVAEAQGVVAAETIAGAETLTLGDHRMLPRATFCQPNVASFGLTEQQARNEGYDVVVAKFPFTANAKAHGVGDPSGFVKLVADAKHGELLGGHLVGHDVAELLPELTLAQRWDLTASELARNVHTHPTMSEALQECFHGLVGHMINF
Assay: LPD Assay with 30 min preincubation

Q: With `CC#CCNC(=O)CN(C)S(=O)(=O)c1cc(C)cc2cc(C#N)[nH]c12` [US20240132480, Example 210] as the molecule, how does the IC50 read?
A: 38 nM
